Results: patent US20260216057A1, “PHARMACEUTICAL COMPOSITIONS FOR HERPES VIRUS” (priority 2022, published 2026)

What was measured:
[1] = Example 1: pritelivir aqueous suspension SC PK study in rat; assay type: in vivo, male Sprague Dawley rats; conditions: aqueous suspension (dihydrate), 33.33 mg/kg and 166.67 mg/kg, both dosing levels
Method: The LC-MS methodology and conditions used to analyse pritelivir in plasma samples from the PK studies described in Examples 1 to 5 are provided in Table 1.
An aqueous suspension of crystalline pritelivir free base (dihydrate) in a 0.9% NaCl+0.5% polysorbate 80 vehicle at concentrations of 10.0 mg/mL and 50.0 mg/mL was prepared as follows: • 1) Vehicle (0.9% w/w NaCl and 0.5% w/w polysorbate 80) was prepared by dissolving NaCl and polysorbate 80 in water. • 2) Appropriate amount of crystalline pritelivir free base (dihydrate) was weighed and added to the vehicle. • 3) Mixture was vortexed for 1 minute, stirred for 10 minutes and then sonicated for 15 minutes. • 4) The final dosing formulation was a homogenous white cloudy suspension.
Male Sprague Dawley (SD) rats with ~300 g body weight (ages 6-8 weeks) were used for the pharmacokinetic study. The animals had free access to food and water. The pritelivir suspensions described above were administered via sub-cutaneous injection to each animal group (n=3) with a dosing volume of 3.33 mL/kg to achieve 33.33 mg/kg and 166.67 mg/kg doses.
At each time point, approximately 200 μL whole blood was collected in a K2EDTA tube via the jugular vein. Blood samples were put on ice and centrifuged at 2000 g for 5 min to obtain a plasma sample within 15 minutes. Plasma samples were stored at approximately −70° C. until analyzed by LC-MS.

[2] = Example 13: Compound 1 IV PK study in rat; assay type: in vivo, male Sprague Dawley rats; conditions: male, Sprague Dawley, plasma, 1 mg/kg, read-out: Rat t1/2 (converted)
Method: The LC-MS methodology and conditions used to analyse Compound 1 in plasma samples from the intra-venous injection PK studies (Example 13) are described in Tables 5 to 7. A 0.2 mg/mL solution of Compound 1 in 10% NMP, 10% Solutol HS15 and 80% Saline was prepared as follows: • 1) A stock solution of Compound 1 in NMP was prepared. • 2) An equal volume of the Compound 1 stock solution and Solutol HS15 were combined and mixed. • 3) The above solution was diluted with normal saline to reach the target concentration. The final formulation was a clear solution. Male Sprague Dawley (SD) rats with 230-250 g body weight, ages 6-8 weeks, were used for the rat pharmacokinetic study. The animals had free access to food and water. The Compound 1 solution described above was administered via intravenous injection to animals (n=3) to achieve a 1.0 mg/kg dose. At each time point, approximately 200 μL whole blood was collected in a K2EDTA tubes. Blood samples were put on ice and centrifuged at 2000 g for 5 min to obtain a plasma sample within 15 minutes. Plasma samples were stored at approximately −70° C. until analyzed by LC-MS according to the method described above.

[3] = Example 17: Compound 1 (Form C) microsuspension and nanosuspension SC and IM PK study in rat; assay type: in vivo, male Sprague Dawley rats; conditions: for prolonged exposure for (length of the study): 20 mg/animal (~80 mg/kg), micro- and nano-suspensions (Form C), both formulations
Method: The LC-MS methodology and conditions used to analyse Compound 1 in rat plasma samples from the PK study described in Example 17 are given in Table 10.
An aqueous microsuspension of crystalline Compound 1 free form (crystalline Form C) in a 20 mg/mL PVP K30, 10 mg/mL poloxamer 188 and 50 mg/mL mannitol vehicle at a concentration of 200 mg/mL was prepared as follows: • 1) Crystalline Compound 1 (Form C) was jet milled to obtain microparticles (Dv90<10 μm). • 2) Jet milled material was dispersed in 20 mg/ml PVP K30+10 mg/ml Poloxamer 188+50 mg/ml mannitol to obtain a homogeneous suspension. • 3) The suspension was subjected to freeze drying to obtain a freeze-dried powder. • 4) Appropriate amounts of freeze-dried powder (based on assay) were weighed and added to water to obtain a 200 mg/ml suspension. • 5) The mixture was stirred for 5 minutes. • 6) The final dosing formulation was a homogenous white cloudy suspension.
An aqueous nano-suspension of crystalline Compound 1 free form (crystalline Form C) in a 20 mg/mL PVP K30, 10 mg/mL poloxamer 188 and 50 mg/mL mannitol vehicle at a concentration of 200 mg/mL was prepared as follows: • 1) 20 mg/mL crystalline Compound 1 (Form C) was dispersed into a solution of 2 mg/mL PVP K30 1.0 mg/mL poloxamer 188 and 5 mg/mL mannitol • 2) The suspension was subjected to high pressure homogenizer until the size was around 1 μm. • 3) After particle size reduction, the suspension was subjected to freeze drying to obtain a freeze-dried powder. • 4) The freeze-dried powder was reconstituted with water to obtain a 100 mg/mL suspension. • 5) The suspension was wet milled (10:1 0.1 mm zirconium oxide milling beads: Compound 1) at 900 rpm for 600 minutes to reduce particle size to nanosized particles (Dv90<200 nm). • 6) This nanosuspension was subjected to freeze drying to obtain a freeze-dried powder. • 7) Appropriate amounts of freeze-dried powder (based on assay) were weighed and added to water to obtain a 200 mg/ml suspension. • 8) The mixture was stirred for 10 minutes. • 9) The final dosing formulation was a homogenous white cloudy suspension.
Male Sprague Dawley (SD) rats with ~230-250 g body weight (aged 6-8 weeks) were used for the pharmacokinetic study. The animals had free access to food and water. The Compound 1 solution described above was administered via sub-cutaneous or intra-muscular injection to each animal group (n=3) with a dosing volume of 0.1 mL/animal (~0.4 mL/kg) to achieve a 20 mg/animal dose (~80 mg/kg).
At each time point, approximately 150 μL whole blood was collected in a K2EDTA tube via the jugular vein. Blood samples were put on ice and centrifuged at 2000 g for 5 min to obtain a plasma sample within 15 minutes. Plasma samples were stored at approximately −70° C. until analyzed by LC-MS.

[4] = tested on: carbonic anhydrase I and/or carbonic anhydrase II; assay: Carbonic anhydrase inhibition; assay type: biochemical
Source text: Carbonic anhydrase inhibition can be measured using a carbonic anhydrase I assay as described in Katritzky et al. (J. Med. Chem. 1987, 30:2058) and a carbonic anhydrase […] assay as described in lyer et al. (J. Biomol. Screen 2006, 11:782).

[5] = Example 7: Compound 1 aqueous suspension SC PK study in monkey; assay type: in vivo, male cynomolgus monkeys; conditions: aqueous suspension (Form A), 10 mg/kg
Method: The LC-MS methodology and conditions used to analyse the helicase-primase inhibitor Compound 1 in plasma samples from the sub-cutaneous injection PK studies (Examples 7 and 10-12) are described in Table 3 and Table 4. An aqueous suspension of crystalline Compound 1 (Form A) was prepared in a 0.9% NaCl+0.5% polysorbate 80 vehicle at a concentration of 3.0 mg/mL as described in Example 3. The suspension was then dosed to male cyno monkeys at 10 mg/kg according to the Example 3 animal dosing method.

Compound | prolonged exposure out to (length of the study) [1] | half-life [2] | plasma levels, intramuscular compared with subcutaneous injection ([3]; 20 mg/animal, micro- and nano-suspensions) | plasma levels, nanosuspension compared with microsuspension ([3]; intramuscular, 20 mg/animal) | prolonged exposure for (length of the study) ([3]; intramuscular) | adverse reactions at the injection sites ([3]; intramuscular, micro- and nano-suspensions) | prolonged exposure for (length of the study) ([3]; subcutaneous) | plasma levels, nanosuspension compared with microsuspension ([3]; subcutaneous, 20 mg/animal, throughout the test period) | adverse reactions at the injection sites ([3]; subcutaneous, micro- and nano-suspensions) | carbonic anhydrase inhibition [4] | prolonged exposure out to (length of the study) [5]
Cc1nc(N(C)C(=O)Cc2ccc(-c3ccccn3)cc2)sc1S(N)(=O)=O [pritelivir, N-methyl-N-(4-methyl-5-sulfamoyl-1,3-thiazol-2-yl)-2-[4-(pyridin-2-yl)phenyl]acetamide] | at least 720 hours |  |  |  |  |  |  |  |  |  | 
Cc1nc(N2CCCN(c3ccc(-c4cc(F)ccc4F)cc3)C2=O)sc1S(N)(=O)=O [Compound 1, 2-(3-(2′,5′-difluoro-[1,1′-biphenyl]-4-yl)-2-oxotetrahydropyrimidin-1(2H)-yl)-4-methylthiazole-5-sulfonamide] |  | 22 h | plasma levels were higher than those achieved by these formulations when administered by subcutaneous injection | nanosuspension provided higher plasma levels than the microsuspension | at least 600 hours | no adverse reactions observed | at least 600 hours | nanosuspension provided higher plasma levels than the microsuspension | no adverse reactions observed | no or low levels of carbonic anhydrase inhibition | at least 1392 hours
